Measured values reported in ChEMBL document CHEMBL1201862, “PubChem BioAssay data set” (2004).
Calls of active or inactive are those of the source.

Columns and labels:
[1] = target: T1, Nuclear receptor subfamily 0 group B member 1 (Homo sapiens, UniProt P51843); experiment: Luminescence-based cell-based high throughput dose response assay for inhibitors of the orphan nuclear receptor subfamily 0, group B, member 1 (DAX1; NR0B1). [Related pubchem assays (depositor defined):AID504766, AID504790]; type: functional
T1 sequence (P51843 whole entry): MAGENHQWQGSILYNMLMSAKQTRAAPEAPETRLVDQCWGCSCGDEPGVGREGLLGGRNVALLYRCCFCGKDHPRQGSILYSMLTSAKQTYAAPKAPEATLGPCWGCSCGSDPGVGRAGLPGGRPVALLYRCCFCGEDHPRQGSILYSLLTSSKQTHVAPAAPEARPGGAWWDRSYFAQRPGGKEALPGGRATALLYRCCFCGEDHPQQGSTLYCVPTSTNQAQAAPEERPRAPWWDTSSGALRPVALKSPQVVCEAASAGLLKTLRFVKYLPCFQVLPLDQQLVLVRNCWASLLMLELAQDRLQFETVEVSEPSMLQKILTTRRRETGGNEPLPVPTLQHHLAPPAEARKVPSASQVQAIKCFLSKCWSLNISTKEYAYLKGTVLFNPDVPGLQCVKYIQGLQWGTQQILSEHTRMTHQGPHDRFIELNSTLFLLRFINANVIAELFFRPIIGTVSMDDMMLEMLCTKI

[2] = test system: HEK293; experiment: cells; type: functional, cell-based; conditions: Homo sapiens
[3] = target: T2, Coagulation factor XII (Homo sapiens, UniProt P00748); type: functional;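 note: activated factor XIIa alpha cleaving a fluorogenic AMC peptide substrate; inhibitor potency from loss of enzyme activity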
T2 sequence (P00748 whole entry): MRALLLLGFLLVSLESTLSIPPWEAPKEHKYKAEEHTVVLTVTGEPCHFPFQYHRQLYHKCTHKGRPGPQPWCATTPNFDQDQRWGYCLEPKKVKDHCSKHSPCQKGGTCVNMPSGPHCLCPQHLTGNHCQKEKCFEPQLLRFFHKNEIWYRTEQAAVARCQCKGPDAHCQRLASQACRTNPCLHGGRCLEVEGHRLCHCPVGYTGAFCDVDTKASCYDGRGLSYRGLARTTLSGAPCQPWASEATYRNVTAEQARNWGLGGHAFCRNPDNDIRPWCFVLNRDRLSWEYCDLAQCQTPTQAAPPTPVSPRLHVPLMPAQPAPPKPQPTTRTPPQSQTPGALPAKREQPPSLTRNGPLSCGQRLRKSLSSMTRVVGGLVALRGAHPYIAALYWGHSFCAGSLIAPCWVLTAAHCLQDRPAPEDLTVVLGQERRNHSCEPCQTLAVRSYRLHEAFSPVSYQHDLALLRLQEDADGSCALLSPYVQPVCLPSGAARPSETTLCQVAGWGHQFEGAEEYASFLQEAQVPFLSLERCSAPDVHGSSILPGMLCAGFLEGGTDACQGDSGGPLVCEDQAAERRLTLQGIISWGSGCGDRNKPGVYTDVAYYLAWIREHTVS

[4] = target: Hexokinase HKDC1 (Homo sapiens, UniProt Q2TB90); experiment: SAR analysis of small molecule inhibitors of hexokinase domain containing I (HKDC1). [Related pubchem assays (depositor defined):AID493160, AID493190]; type: functional
[5] = target: Hexokinase-1 (Homo sapiens, UniProt P19367); experiment: SAR analysis of small molecule inhibitors of hexokinase domain containing I (HKDC1) in the hexokinase 1 selectivity assay. [Related pubchem assays (depositor defined):AID493160, AID493190]; type: functional
[6] = target: Voltage-gated inwardly rectifying potassium channel KCNH2 (Homo sapiens, UniProt Q12809); conditions: Potency;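 note: confirmatory quantitative high-throughput screen measuring inhibition of hERG channel activity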
[7] = target: T3, Type-1 angiotensin II receptor (Homo sapiens, UniProt P30556); experiment: AT1 receptor agonists, dose response, selectivity assay for APJ receptor agonist project, cell-based, uHTS hits (AID 488865); type: functional;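 note: beta-arrestin recruitment to AT1 measured by enzyme fragment complementation luminescence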
T3 sequence (P30556 whole entry): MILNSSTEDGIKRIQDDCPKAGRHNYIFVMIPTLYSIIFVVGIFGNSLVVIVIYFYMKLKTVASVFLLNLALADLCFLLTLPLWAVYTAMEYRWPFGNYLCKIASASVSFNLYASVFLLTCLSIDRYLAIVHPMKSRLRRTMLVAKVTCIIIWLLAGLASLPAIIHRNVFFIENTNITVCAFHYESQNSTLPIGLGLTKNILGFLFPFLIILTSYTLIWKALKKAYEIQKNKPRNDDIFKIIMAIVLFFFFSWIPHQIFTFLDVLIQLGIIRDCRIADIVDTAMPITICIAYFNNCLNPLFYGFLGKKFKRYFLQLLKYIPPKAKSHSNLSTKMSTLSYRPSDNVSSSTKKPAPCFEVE

[8] = target: T4, Short transient receptor potential channel 4 (Mus musculus, UniProt Q9QUQ5); experiment: mouse TRPC4 channel activators, dose response, cell-based, HEK293 TRPC4/mu-opioid, Fluo-4 calcium (AID 434937); type: functional
T4 sequence (Q9QUQ5 whole entry): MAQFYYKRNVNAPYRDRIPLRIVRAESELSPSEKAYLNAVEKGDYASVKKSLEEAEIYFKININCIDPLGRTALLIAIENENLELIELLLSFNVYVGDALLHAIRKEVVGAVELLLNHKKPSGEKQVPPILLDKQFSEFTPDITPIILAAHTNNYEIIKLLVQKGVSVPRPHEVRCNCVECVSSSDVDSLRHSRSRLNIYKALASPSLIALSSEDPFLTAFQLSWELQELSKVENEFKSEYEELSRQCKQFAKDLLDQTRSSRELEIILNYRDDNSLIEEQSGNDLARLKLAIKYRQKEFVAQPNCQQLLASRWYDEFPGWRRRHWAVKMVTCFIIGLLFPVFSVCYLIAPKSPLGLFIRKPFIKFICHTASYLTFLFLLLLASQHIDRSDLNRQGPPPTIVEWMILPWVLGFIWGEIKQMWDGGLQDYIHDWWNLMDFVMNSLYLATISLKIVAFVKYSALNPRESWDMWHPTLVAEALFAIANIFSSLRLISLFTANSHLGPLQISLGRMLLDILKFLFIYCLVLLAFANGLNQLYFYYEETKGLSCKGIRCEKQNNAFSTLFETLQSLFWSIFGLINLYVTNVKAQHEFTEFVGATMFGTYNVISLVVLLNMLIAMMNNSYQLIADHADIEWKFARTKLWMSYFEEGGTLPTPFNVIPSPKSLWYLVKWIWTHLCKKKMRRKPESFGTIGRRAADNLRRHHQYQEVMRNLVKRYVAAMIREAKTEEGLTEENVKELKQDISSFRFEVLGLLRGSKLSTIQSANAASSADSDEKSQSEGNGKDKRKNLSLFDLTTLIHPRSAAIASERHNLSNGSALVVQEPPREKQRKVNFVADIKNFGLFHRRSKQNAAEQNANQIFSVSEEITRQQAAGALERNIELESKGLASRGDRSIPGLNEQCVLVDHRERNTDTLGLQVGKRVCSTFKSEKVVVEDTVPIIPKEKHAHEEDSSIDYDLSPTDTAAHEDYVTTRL

[9] = target: T5, Cytochrome P450 1A2 (Homo sapiens, UniProt P05177);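 note: PubChem cytochrome P450 panel assay, CYP1A2 panel member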
T5 sequence (P05177 whole entry): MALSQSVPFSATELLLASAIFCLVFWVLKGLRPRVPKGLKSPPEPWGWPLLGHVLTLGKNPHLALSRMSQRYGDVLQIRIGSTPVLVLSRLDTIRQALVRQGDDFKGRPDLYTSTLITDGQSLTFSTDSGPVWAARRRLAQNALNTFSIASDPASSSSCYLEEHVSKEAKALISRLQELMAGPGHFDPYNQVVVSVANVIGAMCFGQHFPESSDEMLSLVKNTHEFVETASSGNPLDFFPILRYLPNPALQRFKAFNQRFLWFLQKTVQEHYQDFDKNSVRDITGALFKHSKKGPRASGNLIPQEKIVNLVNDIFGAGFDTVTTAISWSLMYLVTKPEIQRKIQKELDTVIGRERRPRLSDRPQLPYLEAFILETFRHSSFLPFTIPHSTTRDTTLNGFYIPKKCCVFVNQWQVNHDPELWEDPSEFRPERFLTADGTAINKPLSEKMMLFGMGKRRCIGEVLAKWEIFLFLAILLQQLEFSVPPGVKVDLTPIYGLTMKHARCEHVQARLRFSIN

[10] = target: Cytochrome P450 2D6 (Homo sapiens, UniProt P10635);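 note: CYP2D6 member of a cytochrome P450 panel assay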
[11] = target: Cytochrome P450 3A4 (Homo sapiens, UniProt P08684);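 note: CYP3A4 tested as one member of a cytochrome P450 panel screen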
[12] = test system: HeLa; experiment: HeLa cell cytotoxicity, dose response, cytotoxicity control for MITF activator project, CellTiter-Glo luminescence, cherry-pick samples (AID 540259); type: functional, cell-based; conditions: Homo sapiens
[13] = target: T6, Fatty acid synthase (Homo sapiens, UniProt P49327); experiment: FAS thioesterase domain inhibitors, dose response, biochemical, endpoint fluorescence intensity, uHTS hits (AID 624327); type: functional;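 note: fluorescence from hydrolysis of an O-methyl fluorescein acyl ester substrate by the enzyme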
[14] = target: T6, Fatty acid synthase; experiment: FAS thioesterase domain inhibitors, dose response, biochemical, kinetic fluorescence intensity (AID 624326); type: functional;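 note: rate of fluorescence rise from hydrolysis of a fluorogenic O-methyl fluorescein ester substrate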

Hexokinase HKDC1, sequence (Q2TB90 whole entry, the tested form may be a part): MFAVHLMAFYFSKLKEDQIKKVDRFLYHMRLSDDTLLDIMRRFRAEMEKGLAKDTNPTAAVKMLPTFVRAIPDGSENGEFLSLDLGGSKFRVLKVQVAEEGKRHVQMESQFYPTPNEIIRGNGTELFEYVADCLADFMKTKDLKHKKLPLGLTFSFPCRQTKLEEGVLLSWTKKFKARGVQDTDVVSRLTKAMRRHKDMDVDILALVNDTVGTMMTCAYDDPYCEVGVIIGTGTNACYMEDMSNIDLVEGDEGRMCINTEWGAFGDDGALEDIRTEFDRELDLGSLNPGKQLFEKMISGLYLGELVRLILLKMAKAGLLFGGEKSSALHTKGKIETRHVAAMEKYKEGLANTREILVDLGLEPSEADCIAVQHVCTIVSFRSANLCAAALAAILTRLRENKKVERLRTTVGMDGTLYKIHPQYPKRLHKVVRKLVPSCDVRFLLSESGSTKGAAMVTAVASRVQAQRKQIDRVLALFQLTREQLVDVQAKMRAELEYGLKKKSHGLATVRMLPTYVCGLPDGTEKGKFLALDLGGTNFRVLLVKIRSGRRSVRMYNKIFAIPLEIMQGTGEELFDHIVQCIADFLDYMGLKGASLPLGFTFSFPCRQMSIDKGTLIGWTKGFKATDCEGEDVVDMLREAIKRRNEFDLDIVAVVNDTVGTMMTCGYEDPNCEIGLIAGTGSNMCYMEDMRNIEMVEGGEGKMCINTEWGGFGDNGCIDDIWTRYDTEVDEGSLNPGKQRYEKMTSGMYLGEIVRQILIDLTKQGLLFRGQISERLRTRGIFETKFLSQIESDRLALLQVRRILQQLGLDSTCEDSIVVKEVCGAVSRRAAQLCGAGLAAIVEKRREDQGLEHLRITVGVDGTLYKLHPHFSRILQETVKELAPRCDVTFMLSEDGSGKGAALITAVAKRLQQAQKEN
T6 sequence (P49327 whole entry, the tested form may be a part): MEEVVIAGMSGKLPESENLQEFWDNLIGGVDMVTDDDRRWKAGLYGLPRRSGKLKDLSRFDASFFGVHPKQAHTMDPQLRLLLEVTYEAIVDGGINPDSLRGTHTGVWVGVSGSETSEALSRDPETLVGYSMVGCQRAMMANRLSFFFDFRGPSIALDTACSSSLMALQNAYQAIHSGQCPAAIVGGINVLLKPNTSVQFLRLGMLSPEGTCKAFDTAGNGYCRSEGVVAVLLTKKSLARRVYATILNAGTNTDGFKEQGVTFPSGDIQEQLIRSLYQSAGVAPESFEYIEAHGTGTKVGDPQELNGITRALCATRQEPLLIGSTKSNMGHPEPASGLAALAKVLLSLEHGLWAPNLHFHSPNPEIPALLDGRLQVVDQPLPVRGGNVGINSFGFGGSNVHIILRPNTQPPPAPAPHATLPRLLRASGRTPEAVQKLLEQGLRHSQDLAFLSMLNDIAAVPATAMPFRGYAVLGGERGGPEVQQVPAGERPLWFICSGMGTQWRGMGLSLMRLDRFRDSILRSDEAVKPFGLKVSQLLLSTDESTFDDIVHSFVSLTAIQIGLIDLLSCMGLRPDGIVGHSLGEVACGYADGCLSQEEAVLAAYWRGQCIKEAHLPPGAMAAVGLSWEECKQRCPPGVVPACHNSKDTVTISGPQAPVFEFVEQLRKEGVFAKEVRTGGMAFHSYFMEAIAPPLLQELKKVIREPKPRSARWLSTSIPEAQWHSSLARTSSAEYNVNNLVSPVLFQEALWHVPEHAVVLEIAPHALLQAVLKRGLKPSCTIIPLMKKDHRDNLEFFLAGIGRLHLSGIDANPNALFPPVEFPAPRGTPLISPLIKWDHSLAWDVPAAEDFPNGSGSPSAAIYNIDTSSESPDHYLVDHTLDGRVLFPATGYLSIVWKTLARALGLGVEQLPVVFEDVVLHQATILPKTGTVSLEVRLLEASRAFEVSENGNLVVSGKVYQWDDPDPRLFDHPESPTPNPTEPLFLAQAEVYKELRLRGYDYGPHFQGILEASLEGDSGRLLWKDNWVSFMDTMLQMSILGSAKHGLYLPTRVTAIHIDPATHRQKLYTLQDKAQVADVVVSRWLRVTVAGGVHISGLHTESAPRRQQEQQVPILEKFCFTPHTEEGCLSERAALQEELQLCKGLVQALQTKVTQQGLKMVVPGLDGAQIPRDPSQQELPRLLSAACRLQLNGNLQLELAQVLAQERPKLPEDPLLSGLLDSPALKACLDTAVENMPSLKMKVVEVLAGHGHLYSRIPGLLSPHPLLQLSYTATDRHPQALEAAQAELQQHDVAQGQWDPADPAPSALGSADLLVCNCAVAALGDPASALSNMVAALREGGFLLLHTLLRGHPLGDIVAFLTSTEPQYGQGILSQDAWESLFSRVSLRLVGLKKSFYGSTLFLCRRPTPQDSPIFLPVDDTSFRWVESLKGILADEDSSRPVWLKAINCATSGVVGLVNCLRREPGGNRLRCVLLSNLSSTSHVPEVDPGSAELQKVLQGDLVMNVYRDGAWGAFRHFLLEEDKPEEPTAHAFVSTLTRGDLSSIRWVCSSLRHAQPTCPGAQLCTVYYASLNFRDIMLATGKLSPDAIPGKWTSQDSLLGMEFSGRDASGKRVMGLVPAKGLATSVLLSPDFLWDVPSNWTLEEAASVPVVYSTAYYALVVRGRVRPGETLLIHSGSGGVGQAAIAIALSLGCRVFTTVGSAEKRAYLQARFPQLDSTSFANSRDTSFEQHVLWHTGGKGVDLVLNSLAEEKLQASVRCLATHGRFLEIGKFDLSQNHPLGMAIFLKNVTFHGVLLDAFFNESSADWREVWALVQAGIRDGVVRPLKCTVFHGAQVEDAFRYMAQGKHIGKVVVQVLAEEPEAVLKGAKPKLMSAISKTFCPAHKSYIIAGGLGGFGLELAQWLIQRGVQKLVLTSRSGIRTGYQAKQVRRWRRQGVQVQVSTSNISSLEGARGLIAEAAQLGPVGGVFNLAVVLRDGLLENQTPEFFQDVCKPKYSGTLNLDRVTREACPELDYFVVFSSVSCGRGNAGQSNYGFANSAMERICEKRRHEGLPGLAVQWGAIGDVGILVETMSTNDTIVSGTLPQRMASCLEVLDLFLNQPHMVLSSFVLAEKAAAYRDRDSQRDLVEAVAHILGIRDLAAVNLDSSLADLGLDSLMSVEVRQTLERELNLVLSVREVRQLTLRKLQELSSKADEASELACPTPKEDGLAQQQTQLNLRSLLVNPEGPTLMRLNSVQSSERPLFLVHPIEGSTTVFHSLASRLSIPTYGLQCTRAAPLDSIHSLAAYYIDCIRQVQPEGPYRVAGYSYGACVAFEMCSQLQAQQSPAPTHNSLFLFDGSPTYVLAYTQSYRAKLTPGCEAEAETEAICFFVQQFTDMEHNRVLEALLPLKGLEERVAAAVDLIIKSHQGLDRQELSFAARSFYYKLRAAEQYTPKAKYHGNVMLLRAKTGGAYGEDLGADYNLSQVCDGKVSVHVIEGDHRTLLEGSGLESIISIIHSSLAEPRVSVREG
Hexokinase-1, sequence (P19367 whole entry, the tested form may be a part): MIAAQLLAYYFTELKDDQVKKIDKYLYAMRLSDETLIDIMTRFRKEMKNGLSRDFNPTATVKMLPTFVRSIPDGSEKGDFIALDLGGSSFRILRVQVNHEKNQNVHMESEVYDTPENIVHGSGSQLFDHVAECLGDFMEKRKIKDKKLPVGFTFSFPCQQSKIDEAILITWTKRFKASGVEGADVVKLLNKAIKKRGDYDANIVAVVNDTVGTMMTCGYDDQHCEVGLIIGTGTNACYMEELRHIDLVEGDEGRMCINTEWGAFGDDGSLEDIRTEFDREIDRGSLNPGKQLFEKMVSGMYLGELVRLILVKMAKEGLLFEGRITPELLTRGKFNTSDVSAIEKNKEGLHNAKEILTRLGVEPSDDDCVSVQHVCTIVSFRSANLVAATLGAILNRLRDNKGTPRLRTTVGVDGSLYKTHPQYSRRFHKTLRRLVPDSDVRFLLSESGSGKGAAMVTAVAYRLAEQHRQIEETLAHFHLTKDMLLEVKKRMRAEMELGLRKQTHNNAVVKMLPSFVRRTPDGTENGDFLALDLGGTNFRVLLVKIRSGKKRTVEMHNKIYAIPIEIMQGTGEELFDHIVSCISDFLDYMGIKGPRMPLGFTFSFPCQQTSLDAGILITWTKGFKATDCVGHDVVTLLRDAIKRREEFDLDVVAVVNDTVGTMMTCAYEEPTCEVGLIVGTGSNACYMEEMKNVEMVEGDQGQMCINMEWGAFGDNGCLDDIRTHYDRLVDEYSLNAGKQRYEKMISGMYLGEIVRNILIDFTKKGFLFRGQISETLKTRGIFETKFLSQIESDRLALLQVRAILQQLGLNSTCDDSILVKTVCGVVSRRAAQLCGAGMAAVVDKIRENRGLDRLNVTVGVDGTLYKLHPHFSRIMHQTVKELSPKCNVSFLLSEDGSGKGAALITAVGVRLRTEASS
Cytochrome P450 2D6, sequence (P10635 whole entry): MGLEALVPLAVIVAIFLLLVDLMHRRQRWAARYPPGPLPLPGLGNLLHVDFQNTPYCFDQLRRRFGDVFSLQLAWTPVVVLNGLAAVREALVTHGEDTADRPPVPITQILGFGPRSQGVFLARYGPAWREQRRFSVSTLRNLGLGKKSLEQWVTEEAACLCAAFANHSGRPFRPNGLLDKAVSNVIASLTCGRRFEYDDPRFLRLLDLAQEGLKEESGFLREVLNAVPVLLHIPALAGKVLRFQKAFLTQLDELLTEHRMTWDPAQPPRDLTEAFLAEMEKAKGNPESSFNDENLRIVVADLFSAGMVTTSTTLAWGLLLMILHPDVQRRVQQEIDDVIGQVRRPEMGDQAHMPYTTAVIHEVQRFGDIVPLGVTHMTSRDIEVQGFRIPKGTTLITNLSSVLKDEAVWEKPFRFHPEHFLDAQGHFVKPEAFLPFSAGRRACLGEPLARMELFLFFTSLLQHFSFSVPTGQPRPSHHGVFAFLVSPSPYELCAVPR

For `Cc1ccc2nc(N3CCOCC3)c(C=O)cc2c1`, the IC50 [1] was > 67.5 µM (inactive) and the IC50 [2] was > 67.5 µM (inactive).
With `CN(C)S(=O)(=O)Oc1ccsc1C(=O)Nc1ccc(Cl)c(Cl)c1` the IC50 [3] was > 50 µM (inactive).
`N#Cc1ccc(CSc2nnc(NC(=O)c3ccco3)s2)cc1` was tested, and the IC50 [4] was > 80 µM (inactive) and the IC50 [5] was > 80 µM (inactive).
For `C[C@]12CC[C@@H](O)CC1CC[C@@H]1[C@@H]2CC[C@]2(C)C(=O)CC[C@@H]12` (some centres not stated), the AC50 [6] was 25.1 µM (inconclusive).
`COc1ccc(S(=O)(=O)N2CCN(C(=O)c3ccc(O)nn3)CC2)cc1OC` was tested, and the IC50 [1] was > 67.5 µM (inactive) and the IC50 [2] was > 67.5 µM (inactive).
For `CC1CCCCN1S(=O)(=O)c1ccc(C(=O)N(CCCN(C)C)c2nc3ccc(Br)cc3s2)cc1` (configuration not stated), the EC50 [7] was > 100 µM (inactive) and the EC50 [8] was 4.73 µM (active).
`COc1cccc(C(=O)NCCN2CCN(c3ccc(Cl)cc3)CC2)c1` was tested, and the AC50 [6] was 1 µM (inconclusive), the AC50 [9] was 12.6 µM (inconclusive) and the AC50 [10] was 31.6 µM (inconclusive). The AC50 [11] was 15.8 µM (inconclusive).
For `Cc1nc(C(=O)Nc2ccccc2)sc1C(=O)Nc1ccccc1`, the AC50 [12] was 58.6 µM (active).
In the case of `Cc1cccc(/C=C\c2nc3ccccc3c(=O)n2Cc2ccccc2)c1`, the IC50 [4] is reported as > 80 µM (inactive) and the IC50 [5] is reported as > 80 µM (inactive).
`O=S(=O)(c1ccccc1)n1ccc(-c2cnc(-c3ccccc3)s2)n1` was tested, and the IC50 [13] was 7.41 µM (active), the IC50 [14] was 6.85 µM (active) and the AC50 [12] was 101 µM (active).
For `CN1CCN(CCNC(=O)c2cn(Cc3ccccc3F)nn2)CC1`, the IC50 [3] was > 50 µM (inactive).
`CCC(c1nnnn1Cc1ccccc1)N(Cc1cc2cc(OC)ccc2[nH]c1=O)CC1CCCO1` (configuration not stated) was tested, and the EC50 [7] was > 100 µM (inactive).
